From article PMC8973362, “5-(Sulfamoyl)thien-2-yl 1,3-oxazole inhibitors of carbonic anhydrase II with hydrophilic periphery” (Journal of Enzyme Inhibition and Medicinal Chemistry, 2022)
Read-outs that look alike come from different tables or passages of the source.

Experiments:
hCA IV = biological target: T1, hCA IV (Homo sapiens, UniProt P22748); experiment: stopped-flow CO2 hydrase assay, hCA IV; assay type: biochemical
T1 construct: made in house

intraocular pressure = intraocular pressure (IOP) lowering in normotensive rabbits; assay type: in vivo; conditions: 1% eye drop, normotensive New Zealand White rabbits, n = 6, tested twice; comparable to 1 (dorzolamide, 2% eye drops)
hCA XII = biological target: T2, hCA XII (Homo sapiens, UniProt O43570); experiment: stopped-flow CO2 hydrase assay, hCA XII; assay type: biochemical
T2 construct: made in house

hCA II = biological target: T3, hCA II (Homo sapiens, UniProt P00918); experiment: stopped-flow CO2 hydrase assay, hCA II; assay type: biochemical
T3 construct: made in house

hCA I = biological target: T4, hCA I (Homo sapiens, UniProt P00915); experiment: stopped-flow CO2 hydrase assay, hCA I; assay type: biochemical
T4 construct: made in house
T4 sequence (P00915 whole entry): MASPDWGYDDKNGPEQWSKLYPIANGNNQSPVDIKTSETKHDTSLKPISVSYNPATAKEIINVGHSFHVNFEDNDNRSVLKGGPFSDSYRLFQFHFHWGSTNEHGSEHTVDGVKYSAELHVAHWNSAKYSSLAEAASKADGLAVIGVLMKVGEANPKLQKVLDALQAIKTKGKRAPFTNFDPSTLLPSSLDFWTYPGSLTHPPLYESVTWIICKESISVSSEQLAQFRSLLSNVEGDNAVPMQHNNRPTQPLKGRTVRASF

T1 sequence (P22748 19-312): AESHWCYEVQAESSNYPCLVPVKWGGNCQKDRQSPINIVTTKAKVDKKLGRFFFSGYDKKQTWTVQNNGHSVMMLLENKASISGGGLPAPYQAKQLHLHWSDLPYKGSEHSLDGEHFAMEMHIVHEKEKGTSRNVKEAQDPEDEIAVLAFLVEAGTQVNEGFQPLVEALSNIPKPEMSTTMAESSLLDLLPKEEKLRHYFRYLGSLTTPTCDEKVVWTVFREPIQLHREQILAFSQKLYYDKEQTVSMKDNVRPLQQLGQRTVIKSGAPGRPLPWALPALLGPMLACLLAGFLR
T2 sequence (O43570 25-354): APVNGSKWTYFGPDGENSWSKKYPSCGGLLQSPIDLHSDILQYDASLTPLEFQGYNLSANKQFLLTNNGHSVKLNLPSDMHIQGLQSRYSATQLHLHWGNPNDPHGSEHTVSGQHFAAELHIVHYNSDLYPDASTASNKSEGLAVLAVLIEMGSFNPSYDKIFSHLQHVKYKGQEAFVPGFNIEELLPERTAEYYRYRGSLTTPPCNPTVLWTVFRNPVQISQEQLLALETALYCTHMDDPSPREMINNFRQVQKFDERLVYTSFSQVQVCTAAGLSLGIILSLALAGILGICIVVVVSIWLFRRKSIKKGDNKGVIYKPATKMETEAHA

| SMILES | Ki (hCA IV) | IOP lowering effect (intraocular pressure) | Ki (hCA XII) | Ki (hCA II) | Ki (hCA I) | Ki (hCA IV; mean from three assays by stopped flow technique, errors ± 5–10%, read-out: Ki hCA IV) | Ki (hCA XII; mean from three assays by stopped flow technique, errors ± 5–10%, read-out: Ki hCA XII) | Ki (hCA II; mean from three assays by stopped flow technique, errors ± 5–10%, read-out: Ki hCA II) | Ki (hCA I; mean from three assays by stopped flow technique, errors ± 5–10%, read-out: Ki hCA I) |
| --- | --- | --- | --- | --- | --- | --- | --- | --- | --- |
| NS(=O)(=O)c1ccc(-c2cnc(C(=O)N3CCNCC3)o2)s1 [7a] | 21.6 nM | clear IOP lowering effect | 3.9 nM | 0.069 nM | 4 nM |  |  |  |  |
| NS(=O)(=O)c1ccc(-c2cnc(C(=O)NC3CCNCC3)o2)s1 [7b] |  |  | 8.9 nM |  | 56.8 nM |  |  |  |  |
| NC1CCN(C(=O)c2ncc(-c3ccc(S(N)(=O)=O)s3)o2)CC1 [7c] | 30.6 nM |  | 5.7 nM | 0.41 nM | 31.3 nM |  |  |  |  |
| NCCNC(=O)c1ncc(-c2ccc(S(N)(=O)=O)s2)o1 [7d] |  |  | 9.3 nM |  | 72.9 nM |  |  |  |  |
| NCCCNC(=O)c1ncc(-c2ccc(S(N)(=O)=O)s2)o1 [7e] |  |  |  |  |  | 4.6 nM | 8.8 nM | 3.1 nM | 58.3 nM |
